Legend:
Conditions in all cases: Homo sapiens
[1] = tested on: CCRF-CEM; assay: Compound was tested for anti-HIV activity in TK-deficient CEM cells by inhibition of reverse transcriptase activity; format: functional, cell-based
[2] = tested on: CCRF-CEM; assay: Compound was tested for anti-HIV activity in TK-deficient CEM cells by p24 production assay; format: functional, cell-based
[3] = tested on: CCRF-CEM; assay: Compound was tested for anti-HIV activity in TK-deficient CEM cells by microculture tetrazolium assay; format: functional, cell-based
[4] = Compound was tested for anti-HIV activity in normal peripheral blood mononuclear cells by microculture tetrazolium assay; format: functional
[5] = Compound was tested for anti-HIV activity in normal peripheral blood mononuclear cells infected with HIV-2 virus by inhibition of reverse transcriptase activity; format: functional
[6] = Compound was tested for anti-HIV activity in normal peripheral blood mononuclear cells by inhibition of reverse transcriptase activity; format: functional
[7] = Compound was tested for anti-HIV activity in normal peripheral blood mononuclear cells infected with HIV-1(RTMDR-1) virus by inhibition of reverse transcriptase activity; format: functional
[8] = Compound was tested for anti-HIV activity in normal peripheral blood mononuclear cells by p24 production assay; format: functional

Row | Compound | IC50 [1] | IC50 [2] | IC50 [3] | IC50 [4] | IC50 [5] | IC50 [6] | IC50 [7] | IC50 [8]
1 | COC(=O)C(C)NP(=O)(OC[C@@H]1C=C[C@H](n2cc(C)c(=O)[nH]c2=O)O1)Oc1ccccc1 (some centres not stated) | 100 nM | 100 nM | > 10000 nM | > 10000 nM |  |  |  | 
2 | COC(=O)C(C)NP(=O)(OC[C@H]1O[C@@H](n2cc(C)c(=O)[nH]c2=O)C[C@@H]1N=[N+]=[N-])Oc1ccc(Br)cc1 (some centres not stated) | 40 nM |  | > 10000 nM | > 10000 nM | 3900 nM | 4 nM | 1500 nM | 
3 | COC(=O)C(C)NP(=O)(OC[C@@H]1C=C[C@H](n2cc(C)c(=O)[nH]c2=O)O1)Oc1ccc(OC)cc1 (some centres not stated) | 300 nM | 100 nM | > 10000 nM | > 10000 nM |  | 30 nM |  | 30 nM
4 | Cc1cn([C@H]2C[C@H](N=[N+]=[N-])[C@@H](CO)O2)c(=O)[nH]c1=O (single isomer, unassigned) [ZIDOVUDINE] |  |  |  |  | 2400 nM |  | 2000 nM | 
5 | COC(=O)C(C)NP(=O)(OC[C@@H]1C=C[C@H](n2cc(C)c(=O)[nH]c2=O)O1)Oc1ccc(Br)cc1 (some centres not stated) [STAMPIDINE] | 60 nM | 40 nM | > 10000 nM | > 10000 nM | 400 nM | 40 nM | 20 nM | 20 nM
6 | Cc1cn([C@H]2C=C[C@@H](CO)O2)c(=O)[nH]c1=O [STAVUDINE] | 2400 nM | 600 nM | > 10000 nM | > 10000 nM |  | 40 nM |  | 20 nM
